Data on 19 compounds can be found in PMC9352027, “Targeting lipid biosynthesis pathways for hepatitis B virus cure” (PLoS ONE, 2022).

Series [1] deals with HBeAg in HBV-infected HepG2-NTCP cells. Briefly: microbe, parasite or virus in culture. In kind it is cell-based, Hepatitis B virus genotype D (AD38). The note with it: read-out: HBeAg, EC50. As for the experimental part: (§1) Production of wild-type HBV virions from HepAD38 cells was performed as previously described. HepG2-NTCP cells were bulk plated on collagen coated flasks at a density of 6x10^6 cells/ T175 flask. Following a 3-day incubation at 37°C, cells were infected with genotype D (AD38) virus at […] in the presence of 4% PEG8000 and 2.5% DMSO. HepG2-NTCP cells were washed 3 times with OPTI-MEM and maintained in Dulbecco’s modified Eagle’s medium (DMEM) supplemented with 2% FBS and 2.5% DMSO for the following 4 days. HBV-infected HepG2-NTCP cells were trypsinized, resuspended in DMEM supplemented with 2% FBS and 1% DMSO, and seeded onto serially diluted small molecule inhibitors at a 0.5% final DMSO concentration (S1 Table) in 384-well collagen coated plates at a density of 20,000 cells/well for 3 additional days.
(§2) Cell culture supernatant (3 μL) was transferred to two 1536-well plates and HBsAg and HBeAg levels subsequently measured by HTRF (Cisbio). HBsAg was measured using Terbium conjugated (XTL-17) and D2 receptor conjugated (XTL19) anti-HBsAg antibodies, while HBeAg was measured using Terbium conjugated (GWB-F19420, Genway Biotech) and D2 receptor conjugated (GWB-24DEF, Genway Biotech) anti-HBeAg antibodies. […] was measured using an Envision plate reader at emissions of 665 nm and 615 nm. The ratio of 665/615 was used to plot compound dose response curves and EC50 values were calculated from the fit of the dose−response curves to a four-parameter equation.
(§3) (A) Schematic overview of the pathways involved in lipid biosynthesis, such as DNL, TG esterification and cholesterol biosynthesis. […] (B-D) HepG2-NTCP cells infected with HBV for three days were treated with selected compounds in an eight-point dose response. After three days of treatment, extracellular HBsAg and HBeAg levels as well as cell viability were measured.

In series [2] the test system is HBsAg secretion in HBV-infected HepG2-NTCP cells. Briefly: microbe, parasite or virus in culture. The series is classed as cell-based, Hepatitis B virus genotype D (AD38). The note with it: for EC50: read-out: HBsAg, EC50; for inhibition of HBsAg secretion: maximal (up to). How it is done:
as §1, §2, §3

The test system of series [3] is HBV-infected HepG2-NTCP cells. Briefly: Cell viability by CellTiter Glo. The conditions noted are these: three days of treatment. In kind it is cell-based, human. As for the experimental part: as §1
(§4) Cells were analyzed for cell viability by addition of CellTiter Glo (Promega) to the assay plates and analyzed using an Envision plate reader (Perkin Elmer). CC50 values were calculated from the fit of the dose−response curves to a four-parameter equation. All CC50 values represent geometric mean values of a minimum of four determinations.
as §3

Series [4] can be described thus: Cell viability by CellTiter Glo. The conditions noted are these: human; HBV-infected HepG2-NTCP cells, three days of treatment. In kind it is cell-based, human. How it is done:
as §1, §4, §3
(Cellular ATP, detected with luciferase, serves as a proxy for viable cell number.)

Where [5] appears, read: HBV-infected HepG2-NTCP cells, three days of treatment, extracellular.

Like-named read-outs stand apart in the source and are kept apart here. Bounds are passed on as bounds.

Take `COC(=O)c1cc(Cl)c(O)c(S(=O)(=O)Nc2cc(-c3ccccc3)c(F)cc2F)c1` [ACLY Inhibitor, methyl 3-chloro-5-(N-(4,6-difluoro-[1,1'-biphenyl]-3-yl)sulfamoyl)-4-hydroxybenzoate]: the EC50 in series [1] (setting [5]) and in series [2] (setting [5]) was above 10 µM each time. Further, the CC50 – broadly, the concentration that lowers cell viability or growth by half – in series [3] was above 10 µM.
Regarding `CC1=NN(c2ccc(OC(F)F)c(-c3cccnc3)c2)C(=O)C1C(=O)Nc1cccc(C(C)(F)F)c1` (centres unmarked) [ACSS2 Inhibitor, N-(3-(1,1-difluoroethyl)phenyl)-1-(4-(difluoromethoxy)-3-(pyridin-3-yl)phenyl)-3-methyl-5-oxo-4,5-dihydro-1H-pyrazole-4-carboxamide], the EC50 in series [1] (setting [5]) and in series [2] (setting [5]) was above 10 µM throughout. For the same compound, the CC50 in series [3] is above 10 µM.
With `C=C(C)[C@@H]1CC[C@]2(CO)CC[C@]3(C)[C@H](CC[C@@H]4[C@@]5(C)CC[C@H](O)C(C)(C)[C@@H]5CC[C@]43C)[C@@H]12` [Betulin, (1R,3aS,5aR,5bR,7aR,9S,11aR,11bR,13aR,13bR)-3a-(hydroxymethyl)-5a,5b,8,8,11a-pentamethyl-1-(prop-1-en-2-yl)icosahydro-1H-cyclopenta[a]chrysen-9-ol], the EC50 (usually the midpoint of the concentration-response curve) in series [1] (Hepatitis B virus, 72 h) was above 10 µM; in series [2] (Hepatitis B virus, 72 h) it was above 10 µM. This compound yielded a CC50 at 3 days in series [4] above 10 µM.
Turning to `CC(C)N(C)c1nc2cc(C(=O)O)ccc2nc1-c1ccc(F)cc1` [BioE-115, 2-(4-fluorophenyl)-3-(isopropyl(methyl)amino)quinoxaline-6-carboxylic acid], the EC50 in series [1] (setting [5]) and in series [2] (setting [5]) was above 10 µM in each case. The CC50 in series [3] is above 10 µM.
For the compound `O=C(O)c1ccccc1NS(=O)(=O)c1ccc(Cl)c([N+](=O)[O-])c1` [CPT2 Inhibitor, 2-((4-chloro-3-nitrophenyl)sulfonamido)benzoic acid], the EC50 in series [1] (setting [5]) and in series [2] (setting [5]) was above 10 µM in each case. The compound further displayed a CC50 in series [3] above 10 µM.
Regarding `Nc1ncnc2c1C(=O)N(c1ccc([C@H]3CC[C@H](CC(=O)O)CC3)cc1)CCO2` [DGAT1 Inhibitor, 2-((1r,4r)-4-(4-(4-amino-5-oxo-7,8-dihydropyrimido[5,4-f][1,4]oxazepin-6(5H)-yl)phenyl)cyclohexyl)acetic acid], the EC50 in series [1] (setting [5]) and in series [2] (setting [5]) was above 10 µM in each case.
With `CC1(NC(=O)c2ccc3c(-c4ccccc4Cl)cn(-c4ccc(F)cc4)c3c2)CCS(=O)(=O)C1` (centres unmarked) [DGAT2 Inhibitor, 3-(2-chlorophenyl)-1-(4-fluorophenyl)-N-(3-methyl-1,1-dioxidotetrahydrothiophen-3-yl)-1H-indole-6-carboxamide], the EC50 in series [1] (setting [5]) and in series [2] (setting [5]) was above 10 µM throughout. The CC50 in series [3] is above 10 µM.
As to `CCOC(=O)[C@@]1(CCCCCCOc2ccc(Cl)cc2)CO1` [Etomoxir, ethyl (R)-2-(6-(4-chlorophenoxy)hexyl)oxirane-2-carboxylate], the EC50 in series [1] (Hepatitis B virus, 72 h) is above 10 µM; in series [2] (Hepatitis B virus, 72 h) it was above 10 µM. In series [4], this compound registered a 50% cytotoxic concentration (CC50) at 3 days above 10 µM.
Take `Cc1cc(C)c(-c2[nH]c(C3CC3)nc2C)cc1C(=O)N1CC(F)(c2ccc(C#N)cc2)C1` [FASN inhibitor, 4-(1-(5-(2-cyclopropyl-4-methyl-1H-imidazol-5-yl)-2,4-dimethylbenzoyl)-3-fluoroazetidin-3-yl)benzonitrile]: the EC50 in series [1] (setting [5]) was above 10 µM. Also, in series [2] (HBV-infected HepG2-NTCP cells), the “selectivity HBsAg versus HBeAg” value is “selective for HBsAg” and the “inhibition of HBsAg secretion” value was “up to 80%”. Further, the EC50 in series [2] (setting [5]) worked out at 0.081 µM. The compound also registered a CC50 in series [3] above 10 µM.
Take `CCCCCCCCc1ccc(CC[C@](N)(CO)COP(=O)(O)O)cc1` [FTY720 (S)-phosphate, (S)-2-amino-2-(hydroxymethyl)-4-(4-octylphenyl)butyl dihydrogen phosphate]: the concentration giving a half-maximal response (EC50) in series [1] (setting [5]) and in series [2] (setting [5]) was above 10 µM in each case. In series [3], this compound yielded a half-maximal cytotoxic concentration (CC50) above 10 µM.
For the compound `CCCCCCCCc1ccc(CCC(N)(CO)CO)cc1` [FTY720, 2-amino-2-(4-octylphenethyl)propane-1,3-diol], the EC50 in series [1] (Hepatitis B virus, 72 h) was above 10 µM; in series [2] (Hepatitis B virus, 72 h) it was above 10 µM. In series [4], the CC50 at 3 days is above 10 µM.
Consider `CCCc1cc(-c2nc(-c3ccc(C)cc3)cs2)ccn1` [Fatostatin, 2-(2-propylpyridin-4-yl)-4-(p-tolyl)thiazole], for which the EC50 was above 10 µM in series [1] (Hepatitis B virus, 72 h) and above 10 µM in series [2] (Hepatitis B virus, 72 h). This compound also showed a CC50 at 3 days in series [4] above 10 µM.
For the compound `Cc1nn(C)c2nc(NNC(=O)Nc3cc(Cl)nc(Cl)c3)cc(C(C)C)c12` [JTE-013, N-(2,6-dichloropyridin-4-yl)-2-(4-isopropyl-1,3-dimethyl-1H-pyrazolo[3,4-b]pyridin-6-yl)hydrazine-1-carboxamide], the figures for the EC50 in series [1] (setting [5]) and in series [2] (setting [5]) were above 10 µM and 6.7 µM, respectively. For the same compound, in series [3], the cytotoxic concentration (CC50) is above 10 µM.
With `C[C@H]1CCN1c1nc(N2C[C@@H]3[C@@H](CC(=O)O)[C@@H]3C2)cc(C(F)(F)F)n1` [KHK Inhibitor, 2-((1R,5S,6R)-3-(2-((S)-2-methylazetidin-1-yl)-6-(trifluoromethyl)pyrimidin-4-yl)-3-azabicyclo[3.1.0]hexan-6-yl)acetic acid], the EC50 in series [1] (setting [5]) and in series [2] (setting [5]) was above 10 µM in each case.
For the compound `CCOC(=O)c1ccc(CN(Cc2ccc(-c3cccc(S(C)(=O)=O)c3)cc2)S(=O)(=O)c2c(C)cc(C)cc2C)o1` [LXR Inverse Agonist, ethyl 5-(((2,4,6-trimethyl-N-((3'-(methylsulfonyl)-[1,1'-biphenyl]-4-yl)methyl)phenyl)sulfonamido)methyl)furan-2-carboxylate], the EC50 in series [1] (setting [5]) and in series [2] (setting [5]) was above 10 µM in each case. The same compound came in with a CC50 in series [3] above 10 µM.
Take `O=C(O)C[C@H]1CC[C@H](c2ccc(-c3ccc(Nc4ccc(C(F)(F)F)nc4)cn3)cc2)CC1` [Pradagilast, 2-((1r,4r)-4-(4-(5-((6-(trifluoromethyl)pyridin-3-yl)amino)pyridin-2-yl)phenyl)cyclohexyl)acetic acid]: the EC50 in series [1] (Hepatitis B virus, 72 h) was above 10 µM; in series [2] (Hepatitis B virus, 72 h) it was above 10 µM. In series [4], the CC50 at 3 days was above 10 µM.
With `CCCCCCCCCCCCCCCCCCCC(=O)N[C@H]1CC[C@@]2(C)[C@@H](C1)C[C@@H](O)[C@@H]1[C@@H]2C[C@H](O)[C@]2(C)[C@@H]([C@H](C)CCC(=O)O)CC[C@@H]12` [SCD1 Inhibitor, (R)-4-((3S,5S,7R,8R,9S,10S,12S,13R,14S,17R)-7,12-dihydroxy-3-icosanamido-10,13-dimethylhexadecahydro-1H-cyclopenta[a]phenanthren-17-yl)pentanoic acid], the EC50 in series [1] (setting [5]) and in series [2] (setting [5]) was above 10 µM throughout. The CC50 in series [3] is above 10 µM.
As for `CCN(CC)Cc1ccc(C(=O)N(CCc2ccccc2OC)[C@@H]2CCNC2)cc1` [SKI-1/S1P inhibitor, (R)-4-((diethylamino)methyl)-N-(2-methoxyphenethyl)-N-(pyrrolidin-3-yl)benzamide], the EC50 in series [1] (setting [5]) is above 10 µM; in series [2] (setting [5]), 0.79 µM. Also, the “selectivity HBsAg versus HBeAg” value in series [2] (HBV-infected HepG2-NTCP cells) is “selective for HBsAg”. Further, the “inhibition of HBsAg secretion” value in series [2] (HBV-infected HepG2-NTCP cells) was “up to 80%”. This compound also had a CC50 in series [3] above 10 µM.
Turning to `Oc1ccc(Nc2nc(-c3ccc(Cl)cc3)cs2)cc1` [SKI-II, 4-((4-(4-chlorophenyl)thiazol-2-yl)amino)phenol], the concentration giving a half-maximal response (EC50) in series [1] (Hepatitis B virus, 72 h) was above 10 µM; in series [2] (Hepatitis B virus, 72 h), 8.84 µM. In series [4], this compound showed a CC50 at 3 days above 10 µM.
